Experimental data taken from patent US11090304B2 (Amgen Inc., priority 2018, dated 2021).

Experiments:
[1] = target: GDP-bound KRAS protein (aa 1-169), containing both G12C and C118A amino acid substitutions (Homo sapiens, UniProt P01116, C118A/G12C); test: Coupled nucleotide exchange assay (SOS-mediated, AlphaScreen); assay type: biochemical; conditions: 5 min compound pre-incubation
[2] = system: Phosphorylation of ERK1/2 in MIA PaCa-2 cells; test: Phospho-ERK1/2 MSD assay in MIA PaCa-2 cells; assay type: cell-based; conditions: Homo sapiens, MIA PaCa-2, 2 h, read-out: p-ERK IC50 (2 h; MIA PaCa-2), 2 h compound treatment
Procedure, shortened: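 In the procedure, cells were plated a day ahead at 25,000 per well. Next, a dilution series of compound in growth medium was added for 2 or 4 h. EGF (10 ng/mL) stimulation for 10 min preceded washing and RIPA lysis. Lysate phospho-ERK1/2 was read by MSD, with IC50 derived by 4-parameter logistic analysis.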

GDP-bound KRAS protein (aa 1-169), containing both G12C and C118A amino acid substitutions, sequence (P01116 1-169 isoform P01116-2 G12C/C118A): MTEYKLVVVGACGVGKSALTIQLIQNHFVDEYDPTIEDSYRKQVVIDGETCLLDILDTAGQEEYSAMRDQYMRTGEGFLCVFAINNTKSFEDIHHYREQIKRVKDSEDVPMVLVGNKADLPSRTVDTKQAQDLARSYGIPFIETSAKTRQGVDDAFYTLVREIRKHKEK

SMILES	Coupled exchange IC50 (5 min) [1]	IC50 [2] [nM]
C=CC(=O)N1CCN(c2nc(=O)n(-c3ccccc3S(F)(F)(F)(F)F)c3nc(-c4c(O)cccc4F)c(Cl)cc23)[C@@H](C)C1 [Example 56-1, 6-Chloro-7-(2-fluoro-6-hydroxy-phenyl)-4-[(2S)-2-methyl-4-prop-2-enoyl-piperazin-1-yl]-1-[2-(pentafluoro-λ^6-sulfanyl)phenyl]pyrido[2,3-d]pyrimidin-2-one]	0.149 | nda μM	359
C=CC(=O)N1CCN(c2nc(=O)n(-c3c(C(C)C)ncnc3C(C)C)c3nc(-c4c(N)cccc4F)c(Cl)cc23)[C@@H](C)C1 [Example 56-2, 7-(2-amino-6-fluorophenyl)-6-chloro-1-(4,6-di(2-propanyl)-5-pyrimidinyl)-4-((2S)-2-methyl-4-(2-propenoyl)-1-piperazinyl)pyrido[2,3-d]pyrimidin-2(1H)-one]	0.061 | nda μM	52
C=CC(=O)N1CCN(c2nc(=O)n(-c3c(C)cccc3C3CC3)c3nc(-c4ccccc4F)c(Cl)cc23)[C@@H](C)C1 [Example 56-5, 6-chloro-1-(2-cyclopropyl-6-methylphenyl)-7-(2-fluorophenyl)-4-((2S)-2-methyl-4-(2-propenoyl)-1-piperazinyl)pyrido[2,3-d]pyrimidin-2(1H)-one]	0.433 | nda μM	740
C=CC(=O)N1CCN(c2nc(=O)n(-c3ccccc3C(C)C)c3nc(-c4cc(N)ccc4Br)c(Cl)cc23)[C@@H](C)C1 [Example 56-6, 7-(5-amino-2-bromophenyl)-6-chloro-4-((2S)-2-methyl-4-(2-propenoyl)-1-piperazinyl)-1-(2-(2-propanyl)phenyl)pyrido[2,3-d]pyrimidin-2(1H)-one]	0.125 | nda μM	84
C=CC(=O)N1CCN(c2nc(=O)n(-c3ccccc3C(C)C)c3nc(-c4cc(N)ccc4Cl)c(Cl)cc23)[C@@H](C)C1 [Example 56-7, 7-(5-amino-2-chlorophenyl)-6-chloro-4-((2S)-2-methyl-4-(2-propenoyl)-1-piperazinyl)-1-(2-(2-propanyl)phenyl)pyrido[2,3-d]pyrimidin-2(1H)-one]	0.11 | nda μM	69
C=CC(=O)N1CCN(c2nc(=O)n(-c3ccccc3C(C)C)c3nc(-c4cc(OC)ccc4F)c(Cl)cc23)[C@@H](C)C1 [Example 56-9, 6-chloro-7-(2-fluoro-5-methoxyphenyl)-4-((2S)-2-methyl-4-(2-propenoyl)-1-piperazinyl)-1-(2-(2-propanyl)phenyl)pyrido[2,3-d]pyrimidin-2(1H)-one]	0.269 | nda μM	160
C=CC(=O)N1CCN(c2nc(=O)n(-c3ccccc3C(C)C)c3nc(-c4ccccc4OC(F)F)c(Cl)cc23)[C@@H](C)C1 [Example 56-10, 6-chloro-7-(2-(difluoromethoxy)phenyl)-4-((2S)-2-methyl-4-(2-propenoyl)-1-piperazinyl)-1-(2-(2-propanyl)phenyl)pyrido[2,3-d]pyrimidin-2(1H)-one]	0.332 | nda μM	260
C=CC(=O)N1CCN(c2nc(=O)n(-c3c(C)ccnc3CC)c3nc(-c4c(O)cccc4F)c(F)cc23)[C@@H](C)C1 [Example 57-1, 1-(2-Ethyl-4-methyl-3-pyridinyl)-6-fluoro-7-(2-fluoro-6-hydroxyphenyl)-4-((2S)-2-methyl-4-(2-propenoyl)-1-piperazinyl)pyrido[2,3-d]pyrimidin-2(1H)-one]	0.835 | nda μM	171
C=CC(=O)N1CCN(c2nc(=O)n(-c3nccnc3C(C)C)c3nc(-c4ccccc4F)c(F)cc23)[C@@H](C)C1 [Example 57-2, 6-fluoro-7-(2-fluorophenyl)-4-((2S)-2-methyl-4-(2-propenoyl)-1-piperazinyl)-1-(3-(2-propanyl)-2-pyrazinyl)pyrido[2,3-d]pyrimidin-2(1H)-one]	0.74 | nda μM	300
C=CC(=O)N1CCN(c2nc(=O)n(-c3nccnc3C(C)C)c3nc(-c4c(O)cccc4F)c(F)cc23)[C@@H](C)C1 [Example 57-3, 6-fluoro-7-(2-fluoro-6-hydroxyphenyl)-4-((2S)-2-methyl-4-(2-propenoyl)-piperazinyl)-1-(3-(2-propanyl)-2-pyrazinyl)pyrido[2,3-d]pyrimidin-2(1H)-one]	0.664 | nda μM	241
C=CC(=O)N1CCN(c2nc(=O)n(-c3c(C(C)C)ncnc3C(C)C)c3nc(-c4c(O)cccc4F)c(F)cc23)[C@@H](C)C1 [Example 57-4, 1-(4,6-di(2-propanyl)-5-pyrimidinyl)-6-fluoro-7-(2-fluoro-6-hydroxyphenyl)-4-((2S)-2-methyl-4-(2-propenoyl)-1-piperazinyl)pyrido[2,3-d]pyrimidin-2(1H)-one]	0.1 | nda μM	61
C=CC(=O)N1CCN(c2nc(=O)n(-c3c(C(C)C)ncnc3C(C)C)c3nc(-c4ccccc4F)c(F)cc23)[C@@H](C)C1 [Example 57-5, 1-(4,6-di(2-propanyl)-5-pyrimidinyl)-6-fluoro-7-(2-fluorophenyl)-4-((2S)-2-methyl-4-(2-propenoyl)-1-piperazinyl)pyrido[2,3-d]pyrimidin-2(1H)-one]	0.221 | nda μM	107
C=CC(=O)N1CCN(c2nc(=O)n(-c3ncccc3C(C)C)c3nc(-c4ccccc4F)c(F)cc23)[C@@H](C)C1 [Example 57-9, 6-fluoro-7-(2-fluorophenyl)-4-((2S)-2-methyl-4-(2-propenoyl)-1-piperazinyl)-1-(3-(2-propanyl)-2-pyridinyl)pyrido[2.3-d]pyrimidin-2(1H)-one]	0.752 | nda μM	239
C=CC(=O)N1CCN(c2nc(=O)n(-c3ncccc3C(C)C)c3nc(-c4c(O)cccc4F)c(F)cc23)[C@@H](C)C1 [Example 57-10, 6-fluoro-7-(2-fluoro-6-hydroxyphenyl)-4-((2S)-2-methyl-4-(2-propenoyl)-1-piperazinyl)-1-(3-(2-propanyl)-2-pyridinyl)pyrido[2,3-d]pyrimidin-2(1H)-one]	0.452 | nda μM	105
C=CC(=O)N1CCN(c2nc(=O)n(-c3scnc3C(C)C)c3nc(-c4c(O)cccc4F)c(F)cc23)[C@@H](C)C1 [Example 57-11, 6-fluoro-7-(2-fluoro-6-hydroxyphenyl)-4-((2S)-2-methyl-4-(2-propenoyl)-1-piperazinyl)-1-(4-(2-propanyl)-1,3-thiazol-5-yl)pyrido[2,3-d]pyrimidin-2(1H)-one]	0.24 | nda μM	265
C=CC(=O)N1CCN(c2nc(=O)n(-c3scnc3C(C)C)c3nc(-c4ccccc4F)c(F)cc23)[C@@H](C)C1 [Example 57-12, 6-fluoro-7-(2-fluorophenyl)-4-((2S)-2-methyl-4-(2-propenoyl)-1-piperazinyl)-1-(4-(2-propanyl)-1,3-thiazol-5-yl)pyrido[2,3-d]pyrimidin-2(1H)-one]	0.472 | nda μM	539
C=CC(=O)N1CCN(c2nc(=O)n(-c3c(C)cccc3C(C)(C)C)c3nc(-c4c(O)cccc4F)c(F)cc23)[C@@H](C)C1 [Example 57-17, 6-fluoro-7-(2-fluoro-6-hydroxyphenyl)-1-(2-methyl-6-(2-methyl-2-propanyl)phenyl)-4-((2S)-2-methyl-4-(2-propenoyl)-1-piperazinyl)pyrido[2,3-d]pyrimidin-2(1H)-one]	0.574 | nda μM	1440
C=CC(=O)N1CCN(c2nc(=O)n(-c3ccccc3C(C)(C)C)c3nc(-c4c(O)cccc4F)c(F)cc23)[C@@H](C)C1 [Example 58-1, 6-Fluoro-7-(2-fluoro-6-hydroxyphenyl)-1-(2-(2-methyl-2-propanyl)phenyl)-4-((2S)-2-methyl-4-(2-propenoyl)-1-piperazinyl)pyrido[2,3-d]pyrimidin-2(1H)-one]	0.661 | nda μM	696
C=CC(=O)N1CCN(c2nc(=O)n(-c3c(C(F)(F)F)ccnc3C(C)C)c3nc(-c4c(O)cccc4F)c(F)cc23)[C@@H](C)C1 [Example 58-3, 6-fluoro-7-(2-fluoro-6-hydroxyphenyl)-4-((2S)-2-methyl-4-(2-propenoyl)-1-piperazinyl)-1-(2-(2-propanyl)-4-(trifluoromethyl)-3-pyridinyl)pyrido[2,3-d]pyrimidin-2(1H)-one]	0.261 | nda μM	181
C=CC(=O)N1CCN(c2nc(=O)n(-c3c(C)ccnc3C(C)C)c3nc(-c4ccccc4F)c(F)cc23)[C@@H](C)C1 [Example 58-4, 6-fluoro-7-(2-fluorophenyl)-1-(4-methyl-2-(2-propanyl)-3-pyridinyl)-4-((2S)-2-methyl-4-(2-propenoyl)-1-piperazinyl)pyrido[2,3-d]pyrimidin-2(1H)-one]	0.395 | nda μM	183
C=CC(=O)N1CCN(c2nc(=O)n(-c3c(C)ccnc3C(C)C)c3nc(-c4cc(O)ccc4F)c(F)cc23)[C@@H](C)C1 [Example 58-5, 6-fluoro-7-(2-fluoro-5-hydroxyphenyl)-1-(4-methyl-2-(2-propanyl)-3-pyridinyl)-4-((2S)-2-methyl-4-(2-propenoyl)-1-piperazinyl)pyrido[2,3-d]pyrimidin-2(1H)-one]	0.484 | nda μM	1990
C=CC(=O)N1CCN(c2nc(=O)n(-c3c(C)ccnc3C(C)C)c3nc(-c4cc(N)ccc4F)c(F)cc23)[C@@H](C)C1 [Example 58-6]	0.623 | nda μM	842
